The values below are quoted from earlier work in patent US20070207193A1, “Novel application of topical anesthetics for modulation of neurogenic tremor” (priority 2006, published 2007).

For one data set, the system named is Parkinsonian tremor. The note with it: ten patients undergoing stereotactic thalamotomy.
Another data set deals with subthalamic nucleus. To be noted: applied centrally in the subcortical areas of the brain.

Consider `CCN(CC)CC(=O)Nc1c(C)cccc1C` [lidocaine], for which the “cases in which microinjection replicated the effects of microstimulation” value in the data set on Parkinsonian tremor was “⅔”. Further, in the data set with subthalamic nucleus, the effect on tremor result is recorded as “ameliorated tremor”.
